Test results taken from patent US20100004222A1, “Amide Derivatives as Ion-Channel Ligands and Pharmaceutical Compositions and Methods of Using the Same” (Renovis, Inc., priority 2006, published 2010).
Read-outs that look alike come from different tables or passages of the source.

Columns and labels:
[1] = Half-life in human liver microsomes (HLM); type: in vitro ADME; conditions: pH 7.4, 1 μM compound, 0.78 mg/mL HLM, 37° C.
Protocol: Test compounds (1 μM) are incubated with 3.3 mM MgCl2 and 0.78 mg/mL HLM (HL101) in 100 mM potassium phosphate buffer (pH 7.4) at 37° C. on the 96-deep well plate. The reaction mixture is split into two groups, a non-P450 and a P450 group. NADPH is only added to the reaction mixture of the P450 group. An aliquot of samples of P450 group is collected at 0, 10, 30, and 60 min time point, where 0 min time point indicated the time when NADPH is added into the reaction mixture of P450 group. An aliquot of samples of non-P450 group is collected at −10 and 65 min time point. Collected aliquots are extracted with acetonitrile solution containing an internal standard. The precipitated protein is spun down in centrifuge (2000 rpm, 15 min). The compound concentration in supernatant is measured by LC/MS/MS system.
The half-life value is obtained by plotting the natural logarithm of the peak area ratio of compounds/internal standard versus time. The slope of the line of best fit through the points yields the rate of metabolism (k). This is converted to a half-life value using following equations: […]

VR1 [2] = biological target: T1, VR1 (Homo sapiens, UniProt Q8NER1); assay: Acid stimulation assay (FDSS 6000); type: cell-based; conditions: final assay buffer pH5.8, 15 min pre-incubation
Protocol: The Acid-induced changes in the intracellular calcium concentration were monitored using FDSS 6000 (Hamamatsu Photonics, Japan), a fluorometric imaging system. The cell suspension in resting buffer (HBSS supplemented with 10 mM HEPES, pH 7.4) was pre-incubated with varying concentrations of the test compounds or resting buffer (buffer control) for 15 minutes at room temperature under dark conditions. The cells were automatically added the stimulating solution (HBSS supplemented with MES, final assay buffer pH5.8) by the FDSS 6000.
Target sequence in this assay (Q8NER1 whole entry, species assumed): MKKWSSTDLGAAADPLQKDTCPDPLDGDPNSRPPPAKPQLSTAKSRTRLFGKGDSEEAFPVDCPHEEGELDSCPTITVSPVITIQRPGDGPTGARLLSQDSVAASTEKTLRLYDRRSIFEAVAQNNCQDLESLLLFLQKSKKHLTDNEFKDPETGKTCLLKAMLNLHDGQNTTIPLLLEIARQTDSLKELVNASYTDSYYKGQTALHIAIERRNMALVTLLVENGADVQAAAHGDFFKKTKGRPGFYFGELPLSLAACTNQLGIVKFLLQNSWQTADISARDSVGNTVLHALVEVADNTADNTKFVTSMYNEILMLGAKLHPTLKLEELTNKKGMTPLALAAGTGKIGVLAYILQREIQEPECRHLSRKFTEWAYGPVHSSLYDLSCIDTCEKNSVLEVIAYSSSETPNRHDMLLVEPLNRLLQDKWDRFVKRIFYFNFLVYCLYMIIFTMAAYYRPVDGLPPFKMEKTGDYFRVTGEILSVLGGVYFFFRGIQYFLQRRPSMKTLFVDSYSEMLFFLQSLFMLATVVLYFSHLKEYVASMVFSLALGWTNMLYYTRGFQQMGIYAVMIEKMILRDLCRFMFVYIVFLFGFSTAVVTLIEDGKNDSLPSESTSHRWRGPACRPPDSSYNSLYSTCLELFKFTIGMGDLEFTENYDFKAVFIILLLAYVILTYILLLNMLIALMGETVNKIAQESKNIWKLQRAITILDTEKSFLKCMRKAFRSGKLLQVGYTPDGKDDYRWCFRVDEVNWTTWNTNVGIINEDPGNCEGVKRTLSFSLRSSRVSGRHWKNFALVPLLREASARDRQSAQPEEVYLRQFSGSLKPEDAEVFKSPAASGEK

VR1 [3] = biological target: T1, VR1; assay: Calcium uptake assay, low pH (proton) agonist; type: cell-based; design: expressed in transfected cells; host or cells: T-REx HEK 293 (Invitrogen), pcDNA5/TO vector
Target sequence in this assay (Q8NER1 whole entry): as the sequence (Q8NER1 whole entry, species assumed) above

[4] = Pharmacokinetic evaluation following intravenous and oral administration in rats; type: in vivo; conditions: male, Sprague-Dawley, plasma, rat; for bioavailability: AUCinf (PO)/AUCinf (IV), dose normalized, PO 5 mg/kg, read-out: Oral Bioavailability F (%); for clearance: non-compartmental analysis, read-out: In vivo Clearance (converted)
Protocol: Male Sprague-Dawley rats are acclimatized for at least 24 hours prior to experiment initiation. During acclimation period, all animals receive food and water ad libitum. However, food but not water is removed from the animal's cages at least 12 hours before initiation of the experiment. During the first 3 hours of experimentation, the animals receive only water ad libitum. At least three animal each are tested for intravenous and oral dosage. For intravenous formulation, compounds were dissolved (0.25 to 1 mg/mL) in a mixture of 3% dimethyl sulfoxide, 40% PEG 400 and the rest percentage of 40% Captisol in water (w/v). For oral formulation, compounds of this invention are dissolved (2 mg/mL) in a mixture of 5% of 10% Tween 80 in water (v/v) and 95% of 0.5% methyl cellulose in water (w/v). The animals are weighed before dosing. The determined body weight is used to calculate the dose volume for each animal.
Dose volume(mL/kg)=1 mg/kg/formulation concentration(mg/mL)
In instances where the formulation concentrations were less than 0.5 mg/mL, the dosing volume is about 2 mL/kg. PO rats are typically dosed through oral gavage at 2.5 mL/kg to achieve a dose level of 5 mg/kg. For IV dosing, blood samples are collected (using a pre-heparinized syringe) via the jugular vein catheter at 2, 5, 15, 30, 60, 120, 180, 300, 480, and 1440 minutes post dosing. For PO dosing, blood samples are collected (using a pre-heparinized syringe) via the jugular vein catheter before dosing and at 5, 15, 30, 60, 120, 180, 300, 480, and 1440 minutes post dosing. About 250 uL of blood is obtained at each time point from the animal. Equal volumes of 0.9% normal saline are replaced to prevent dehydration. The whole blood samples are maintained on ice until centrifugation. Blood samples are then centrifuged at 14,000 rpm for 10 minutes at 4° C. and the upper plasma layer transferred into a clean vial and stored at −80° C. The resulting plasma samples are then analyzed by liquid chromatography-tandem mass spectrometry. Following the measurement of plasma samples and dosing solutions, plasma concentration-time curve is plotted. Plasma exposure is calculated as the area under the concentration-time curve extrapolated to time infinite (AUCinf). The AUCinf is averaged and the oral bioavailability (% F) for individual animal is calculated as:
AUCinf (PO)/AUCinf (IV), normalized to their respective dose levels. The % F is reported as the mean % F of all animals dosed orally with the compound of the invention at the specified level (Table 6).
In vivo clearance in the rat was calculated by conducting a non-compartmental analysis of the pharmacokinetic profile using WinNonlin software.

[5] = HEK293, 0.3 μM compound, low pH (protons) as agonist, HEK 293 cells expressing hVR1, read-out: Low pH % Inhib. @ 0.3 μM

Structure (SMILES) | half-life at 1 μM [1] [min] | IC50 (VR1 [2]) [nM] | inhibition at 0.3 µM (VR1 [3]; [5]) [%] | bioavailability [4] [%] | clearance [4] [mL/min/kg] | inhibition at 0.3 µM (VR1 [3]; HEK293, read-out: Low pH % Inhib. @ 0.3 μM) [%]
Cc1cc(/C=C/C(F)(F)F)ccc1C(=O)Nc1cccc2c1CC(O)CC2 (racemic) [Compound 309, (E)-N-(7-hydroxy-5,6,7,8-tetrahydronaphthylen-1-yl)-2-methyl-4-(3,3,3-trifluoroprop-1-enyl)benzamide] | 135 | 2 | 107 | 29 | 7.68 | 
Cc1cc(/C=C/C(F)(F)F)ccc1C(=O)Nc1cccc2c1C[C@H](O)CC2 (single isomer, unassigned) [Compound 314] |  | 23 | 121 |  |  | 
Cc1cc(/C=C/C(F)(F)F)ccc1C(=O)Nc1cccc2ccc(O)cc12 [Compound 302, (E)-N-(7-hydroxynaphthalen-1-yl)-2-methyl-4-(3,3,3-trifluoroprop-1-enyl)benzamide] | 36.6 | 1 |  | 2 | 67.3 | 
Cc1cc(/C=C/C(F)(F)F)ccc1C(=O)Nc1ccc2cc(C(C)(C)O)cnc2c1 [Compound 303, (E)-N-(3-(2-Hydroxypropan-2-yl)quinolin-7-yl)-2-methyl-4-(3,3,3-trifluoroprop-1-enyl)benzamide] | 57.6 | 37 | 90 | > 100 | 11.3 | 
Cc1cc(/C=C/C(F)(F)F)ccc1C(=O)Nc1ccc2cc(C(C)O)cnc2c1 (centres unmarked) [Compound 304, (E)-N-(3-(1-hydroxyethyl)quinolin-7-yl)-2-methyl-4-(3,3,3-trifluoroprop-1-enyl)benzamide] | 51 | 4 | 98 | > 100 | 20.6 | 
Cc1cc(/C=C/C(F)(F)F)ccc1C(=O)Nc1ccc2cc(COCCO)cnc2c1 [Compound 305, (E)-N-(3-((2-Hydroxyethoxy)methyl)quinolin-7-yl)-2-methyl-4-(3,3,3-trifluoroprop-1-enyl)benzamide] | 16.8 | 12 | 105 | > 100 | 11.2 | 
Cc1cc(/C=C/C(F)(F)F)ccc1C(=O)Nc1ccc2c(c1)C(O)CCC2 (centres unmarked) [Compound 307, (E)-N-(8-hydroxy-5,6,7,8-tetrahydronaphthylen-2-yl)-2-methyl-4-(3,3,3-trifluoroprop-1-enyl)benzamide] |  | 118 | 75 |  |  | 
Cc1cc(/C=C/C(F)(F)F)ccc1C(=O)Nc1ccc2cc(C(O)CO)cnc2c1 (centres unmarked) [Compound 308, (E)-N-(3-(1,2-dihydroxyethyl)quinolin-7-yl)-2-methyl-4-(3,3,3-trifluoroprop-1-enyl)benzamide] | 63 | 11 | 101 | 71 | 12.2 | 
Cc1cc(/C=C/C(F)(F)F)ccc1C(=O)Nc1cnc2c(c1)COC(CO)C2 (centres unmarked) [Compound 310, (E)-N-(7-hydroxymethyl-7,8-dihydro-5H-pyrano[4,3-b]pyridin-3-yl)-2-methyl-4-(3,3,3-trifluoroprop-1-enyl)benzamide] |  | 109 | 71 |  |  | 
Cc1cc(/C=C/C(F)(F)F)ccc1C(=O)Nc1cnc2c(c1)CCCC2 [Compound 312] |  | 103 | 97 |  |  | 
Cc1cc(/C=C/C(F)(F)F)ccc1C(=O)Nc1cnc2cc(CO)cnc2c1 [Compound 317, (E)-N-(7-(Hydroxymethyl)-1,5-naphthyridin-3-yl)-2-methyl-4-(3,33-trifluoroprop-1-enyl)benzamide] | 37.2 | 11 | 100 | 47 | 16.5 | 
Cc1cc(/C=C/C(F)(F)F)ccc1C(=O)Nc1cnc2cccnc2c1 [Compound 318, (E)-2-methyl-N-(1,5-naphthyridin-3-yl)-4-(3,3,3-trifluoroprop-1-enyl)benzamide] | 178 | 3 | 104 | 59 | 1.33 | 
Cc1cc(/C=C/C(F)(F)F)ccc1C(=O)Nc1ccc2nccnc2c1 [Compound 325, (E)-2-methyl-N-(Quinoxalin-6-yl)-4-(3,3,3-trifluoroprop-1-enyl)benzamide] |  | 147 | 72.3 |  |  | 
Cc1cc(/C=C/C(F)(F)F)ccc1C(=O)Nc1ccc2c(c1)N(S(C)(=O)=O)CC2 [Compound 401, (E)-N-(1-methanesulfonyl-2,3-dihydro-1H-indol-6-yl]-2-methyl-4-(3,3,3-trifluoroprop-1-enyl)benzamide] |  | 94 | 88 |  |  | 
Cc1cc(/C=C/C(F)(F)F)ccc1C(=O)Nc1ccc2sc(C(C)O)nc2c1 (centres unmarked) [Compound 403] |  | 147 | 81 |  |  | 
CCC(=O)N1CCc2ccc(NC(=O)c3ccc(/C=C/C(F)(F)F)cc3C)cc21 [Compound 406, (E)-2-methyl-N-(1-propionylindoline-6-yl]-4-(3,3,3-trifluoro-prop-1-enyl)benzamide] |  | 323 | 45 |  |  | 
Cc1cc(/C=C/C(F)(F)F)ccc1C(=O)Nc1ccc2c(c1)N(C(=O)CO)CC2 [Compound 407, (E)-N-(1-(2-hydroxyacetyl)-indolin-yl)-2-methyl-4-(3,3,3-trifluoro-Prop-1-enyl)benzamide] |  | 32 | 95 |  |  | 
CC(=O)n1ccc2cc(NC(=O)c3ccc(/C=C/C(F)(F)F)cc3C)cnc21 [Compound 408, (E)-N-(1-acetyl-1H-pyrrolo[2,3-b]pyridin-5-yl]-2-methyl-4-(3,3,3-trifluoroprop-1-enyl)benzamide] |  | 61 |  |  |  | 91
Cc1cc(/C=C/C(F)(F)F)ccc1C(=O)Nc1ccc2sc(C(C)(C)O)nc2c1 [Compound 409, (E)-N-(2-(2-hydroxypropan-2-yl)benzo[d]thiazol-5-yl)-2-methyl-4-(3,3,3-trifluoroprop-1-enyl)benzamide] |  | 59 | 103 |  |  | 
CC(=O)c1nc2cc(NC(=O)c3ccc(/C=C/C(F)(F)F)cc3C)ccc2s1 [Compound 410, (E)-N-(2-acetylbenzo[d]thiazol-5-yl)-2-methyl-4-(3,3,3-trifluoroprop-1-enyl)benzamide] |  | 707 | 12 |  |  | 
Cc1cc(/C=C/C(F)(F)F)ccc1C(=O)Nc1ccc2oc(CO)nc2c1 [Compound 411, (E)-N-(2-(hydroxymethyl)benzo[d]oxazol-5-yl)-2-methyl-(3,3,3-trifluoroprop-1-enyl)benzamide] |  | 28 | 102 |  |  | 
